Measurements taken from PMC9533837 (Antiviral Research, 2003).
Values after ≈ are worked out from the molar mass of the structure shown. Like-named read-outs stand apart in the source and are kept apart here.

Experiments:
VAR isolate Eth17 = experiment: organism not typed; format: cell-based, variola; details: Vero, read-out: IC50, VAR isolate Eth17
VAR isolate V77-1605 = experiment: organism not typed; format: cell-based, variola; details: Vero, read-out: IC50, VAR isolate V77-1605
VAC Copenhagen [1] = experiment: microbe, parasite or virus in culture; format: cell-based, vaccinia virus
[2] = tested on: VAR-YAM (1946 Japan Yamada isolate of VAR major); experiment: organism not typed; format: cell-based, variola major; details: for IC50: Vero
[3] = tested on: MPX Zaire (V79-1-005-Scab); experiment: organism not typed; format: cell-based, monkeypox; details: for IC50: Vero
[4] = tested on: VAR-BSH (1975 Bangladesh isolate of VAR major); experiment: organism not typed; format: cell-based, variola major
VAR isolate Hinden = experiment: organism not typed; format: cell-based, variola; details: Vero, read-out: IC50, VAR isolate Hinden
VAR isolate Horn = experiment: organism not typed; format: cell-based, variola; details: Vero, read-out: IC50, VAR isolate Horn
[5] = tested on: orthopoxviruses (VAR-BSH, VAR-YAM, VAR-GAR, MPX, CPX, VAC); experiment: organism not typed; format: cell-based
VAR isolate V68-59 = experiment: organism not typed; format: cell-based, variola minor; details: Vero, read-out: IC50, VAR isolate V68-59
VAR isolate Minn124 = experiment: organism not typed; format: cell-based, variola minor; details: Vero, read-out: IC50, VAR isolate Minn124
VAR isolate 7124 = experiment: organism not typed; format: cell-based, variola; details: Vero, read-out: IC50, VAR isolate 7124
VAR isolate Somalia = experiment: organism not typed; format: cell-based, variola; details: Vero, read-out: IC50, VAR isolate Somalia
VAR isolate V72-119 = experiment: organism not typed; format: cell-based, variola; details: Vero, read-out: IC50, VAR isolate V72-119
[6] = tested on: MPX Zaire (V79-1-005-Scab); experiment: organism not typed; format: cell-based, monkeypox
VAR isolate Rafig Lahore = experiment: organism not typed; format: cell-based, variola; details: Vero, read-out: IC50, VAR isolate Rafig Lahore
[7] = tested on: VAR-GAR (1966 Brazil Garcia isolate of VAR minor); experiment: organism not typed; format: cell-based, variola minor; details: for IC50: Vero
CPX Brighton [8] = experiment: organism not typed; format: cell-based, cowpox
CPX = details: mouse, in vivo; cited from earlier work
VAR isolate V74-227 = experiment: organism not typed; format: cell-based, variola; details: Vero, read-out: IC50, VAR isolate V74-227
VAR isolate Jee = experiment: organism not typed; format: cell-based, variola; details: Vero, read-out: IC50, VAR isolate Jee
VAR isolate Shahzaman = experiment: organism not typed; format: cell-based, variola; details: Vero, read-out: IC50, VAR isolate Shahzaman
[9] = tested on: VAR-YAM (1946 Japan Yamada isolate of VAR major); experiment: organism not typed; format: cell-based, variola major
CPX Brighton [10] = experiment: organism not typed; format: cell-based, cowpox; details: for IC50: Vero
LLC-MK2 cells = details: rhesus monkey
[11] = tested on: VAR-BSH (1975 Bangladesh isolate of VAR major); experiment: organism not typed; format: cell-based, variola major; details: for IC50: Vero
VAC Copenhagen [12] = experiment: microbe, parasite or virus in culture; format: cell-based, vaccinia virus; remark: listed apart in the source
VAR isolate 7125 = experiment: organism not typed; format: cell-based, variola; details: Vero, read-out: IC50, VAR isolate 7125
VAC = details: cited from earlier work
all VAR isolates tested = experiment: organism not typed; format: cell-based, variola; details: Vero, read-out: IC50, VAR mean
VAR isolate V73-175 = experiment: organism not typed; format: cell-based, variola; details: Vero, read-out: IC50, VAR isolate V73-175
[13] = tested on: VAR-GAR (1966 Brazil Garcia isolate of VAR minor); experiment: organism not typed; format: cell-based, variola minor
VAR isolate Harper = experiment: organism not typed; format: cell-based, variola; details: Vero, read-out: IC50, VAR isolate Harper
VAR isolate V73-225 = experiment: organism not typed; format: cell-based, variola; details: Vero, read-out: IC50, VAR isolate V73-225
VAR isolate K1629 = experiment: organism not typed; format: cell-based, variola; details: Vero, read-out: IC50, VAR isolate K1629
VAR isolate Higgins = experiment: organism not typed; format: cell-based, variola; details: Vero, read-out: IC50, VAR isolate Higgins
VAR isolate V70-222 = experiment: organism not typed; format: cell-based, variola; details: Vero, read-out: IC50, VAR isolate V70-222

Question: Which results are given for `NC(=O)c1ncn([C@@H]2O[C@H](CO)[C@@H](O)[C@H]2O)n1` [Ribavirin]?
Answer: IC50 (VAR isolate Eth17): 61 µg/mL (≈ 250 µM); IC50 (VAR isolate V77-1605): 453 µg/mL (≈ 1850 µM); Therapeutic index (TI) VAC LLC-MK2 (VAC Copenhagen [1]): 4.2; IC50 (VAC Copenhagen [1]; Orthopoxvirus vaccinia, LLC-MK2, read-out: IC50 VAC LLC-MK2): 23.9 µg/mL (≈ 97.9 µM); Therapeutic index (TI) VAR-YAM Vero [2]: 6.3; IC50 ([2]; read-out: IC50, VAR isolate Yamada): 40 µg/mL (≈ 164 µM); IC50 ([2]; read-out: IC50 VAR-YAM Vero): 15.8 µg/mL (≈ 64.7 µM); Therapeutic index (TI) MPX Vero [3]: 16.9; IC50 ([3]; read-out: IC50, MPX): 11 µg/mL (≈ 45 µM); IC50 ([3]; read-out: IC50 MPX Vero): 5.9 µg/mL (≈ 24.2 µM); Therapeutic index (TI) VAR-BSH LLC-MK2 [4]: 47.6; IC50 ([4]; LLC-MK2, read-out: IC50 VAR-BSH LLC-MK2): 2.1 µg/mL (≈ 8.6 µM); IC50 (VAR isolate Hinden): 33 µg/mL (≈ 135 µM); IC50 (VAR isolate Horn): 28 µg/mL (≈ 115 µM); IC50 ([5]; LLC-MK2, read-out: mean IC50 on LLC-MK2 cells): 8 ± 3.4 µg/mL (≈ 32.8 µM); IC50 ([5]; Vero, read-out: mean IC50 on Vero cells): 31.3 ± 14.1 µg/mL (≈ 128 µM); IC50 (VAR isolate V68-59): 41 µg/mL (≈ 168 µM); IC50 (VAR isolate Minn124): 32 µg/mL (≈ 131 µM); IC50 (VAR isolate 7124): 36 µg/mL (≈ 147 µM); IC50 (VAR isolate Somalia): 84 µg/mL (≈ 344 µM); IC50 (VAR isolate V72-119): 35 µg/mL (≈ 143 µM); Therapeutic index (TI) MPX LLC-MK2 [6]: 24.4; IC50 ([6]; LLC-MK2, read-out: IC50 MPX LLC-MK2): 4.1 µg/mL (≈ 16.8 µM); IC50 (VAR isolate Rafig Lahore): 30 µg/mL (≈ 123 µM); Therapeutic index (TI) VAR-GAR Vero [7]: 5.9; IC50 ([7]; read-out: IC50, VAR isolate Garcia): 39 µg/mL (≈ 160 µM); IC50 ([7]; read-out: IC50 VAR-GAR Vero): 17 µg/mL (≈ 69.6 µM); Therapeutic index (TI) CPX LLC-MK2 (CPX Brighton [8]): 9.4; IC50 (CPX Brighton [8]; LLC-MK2, read-out: IC50 CPX LLC-MK2): 10.6 µg/mL (≈ 43.4 µM); protection of CPX-infected mice (CPX): can protect CPX-infected mice; IC50 (VAR isolate V74-227): 54 µg/mL (≈ 221 µM); IC50 (VAR isolate Jee): 47 µg/mL (≈ 192 µM); IC50 (VAR isolate Shahzaman): 15 µg/mL (≈ 61.4 µM); Therapeutic index (TI) VAR-YAM LLC-MK2 [9]: 29.4; IC50 ([9]; LLC-MK2, read-out: IC50 VAR-YAM LLC-MK2): 3.4 µg/mL (≈ 13.9 µM); Therapeutic index (TI) CPX Vero (CPX Brighton [10]): 3.3; IC50 (CPX Brighton [10]; read-out: IC50, CPX): > 300 µg/mL; IC50 (CPX Brighton [10]; read-out: IC50 CPX Vero): 30.6 µg/mL (≈ 125 µM); Cytotoxicity TC50 LLC-MK2 (LLC-MK2 cells): >100 µg/mL; Therapeutic index (TI) VAR-BSH Vero [11]: 5.4; IC50 ([11]; read-out: IC50, VAR isolate Bangladesh): 30 µg/mL (≈ 123 µM); IC50 ([11]; read-out: IC50 VAR-BSH Vero): 18.4 µg/mL (≈ 75.3 µM); Therapeutic index (TI) VAC Vero (VAC Copenhagen [12]): 1.0; IC50 (VAC Copenhagen [12]; Orthopoxvirus vaccinia, Vero, read-out: IC50 VAC Vero): > 100 µg/mL; IC50 (VAR isolate 7125): 37 µg/mL (≈ 152 µM); inhibition of VAC replication in vitro (VAC): inhibited VAC replication in vitro; IC50 (all VAR isolates tested): 50 ± 8 µg/mL (≈ 205 µM); IC50 (VAR isolate V73-175): 17 µg/mL (≈ 69.6 µM); Therapeutic index (TI) VAR-GAR LLC-MK2 [13]: 27.8; IC50 ([13]; LLC-MK2, read-out: IC50 VAR-GAR LLC-MK2): 3.6 µg/mL (≈ 14.7 µM); IC50 (VAR isolate Harper): 40 µg/mL (≈ 164 µM); IC50 (VAR isolate V73-225): 26 µg/mL (≈ 106 µM); IC50 (VAR isolate K1629): 24 µg/mL (≈ 98.3 µM); IC50 (VAR isolate Higgins): 48 µg/mL (≈ 197 µM); IC50 (VAR isolate V70-222): 221 µg/mL (≈ 905 µM)
